Measured values as given in patent US20190375708A1 (VenatoRx Pharmaceuticals, Inc., priority 2018, published 2019).
pEC50: −log10 of the molar value.

Legend:
[1] = tested on: HBV replication in HepAD38 cells; experiment: Anti-HBV replication assay in HepAD38 cells (QPCR of extracellular HBV DNA); format: cell-based, HBV (genotype D, serotype ayw); conditions: Hepatitis B virus, 168 h, 7 days incubation, extracellular HBV DNA by QPCR, read-out: Anti-HBV EC50
Outline: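 Tet-off HepAD38, 7-day compound exposure ([…], 1 log10 steps, DMSO vehicle), 37 °C. Extracellular HBV DNA by QPCR, copies/mL via standard curve, % inhibition vs vehicle, EC50 by 4-parameter regression. Entecavir as positive control.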

[2] = In vitro cytotoxicity assay (MTT cell viability) in HepG2 cells; format: cell-based, human; conditions: human
Outline: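 Using MTT conversion as the viability measure, HepG2 cells were incubated with compounds for 7 days (30 μM to 1.0 nM). Absorbance at 492 nm was normalized to vehicle and fitted to give CC50.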

`Cc1cc(NC(=O)c2c(C)c(C(=O)C(=O)N[C@H]3CC[C@@H](O)CC3)n(C)c2C)cnc1F` [Example 174, N-(6-fluoro-5-methylpyridin-3-yl)-5-(2-(((1s,4s)-4-hydroxycyclohexyl)amino)-2-oxoacetyl)-1,2,4-trimethyl-1H-pyrrole-3-carboxamide] gave a pEC50 [1] of 6.30 to 7.30 and a CC50 at 7 days [2] greater than 30000 nM.

`COCC(C)(C)NC(=O)C(=O)c1c(C)c(C(=O)Nc2ccc(F)c(C)c2)c(C)n1CCF` [Example 241, N-(4-fluoro-3-methylphenyl)-1-(2-fluoroethyl)-5-(2-((1-methoxy-2-methylpropan-2-yl)amino)-2-oxoacetyl)-2,4-dimethyl-1H-pyrrole-3-carboxamide] showed a pEC50 [1] greater than 7.30 and a CC50 at 7 days [2] greater than 30000 nM.

For `Cc1cc(NC(=O)c2c(C)c(C(=O)C(=O)NC3(CO)CC(F)(F)C3)n3c2CCCC3)cnc1F` [Example 474, 3-(2-((3,3-difluoro-1-(hydroxymethyl)cyclobutyl)amino)-2-oxoacetyl)-N-(6-fluoro-5-methylpyridin-3-yl)-2-methyl-5,6,7,8-tetrahydroindolizine-1-ccarboxamide], the pEC50 [1] was 6.00 to 6.30 and the CC50 at 7 days [2] was greater than 30000 nM.

`Cc1c(C(=O)Nc2ccc(F)nc2)c(C)n(C)c1C(=O)C(=O)NC(C)(C)C(F)(F)F` [Example 121, N-(6-fluoropyridin-3-yl)-1,2,4-trimethyl-5-(2-oxo-2-((1,1,1-trifluoro-2-methylpropan-2-yl)amino)acetyl)-1H-pyrrole-3-carboxamide] showed a pEC50 [1] greater than 7.30 and a CC50 at 7 days [2] greater than 30000 nM.

With `O=C(N[C@H]1CCC[C@H]1O)C(=O)c1c(Cl)c(C(=O)Nc2ccc(F)c(Cl)c2)c2n1CCC2` [Example 564, 6-chloro-N-(3-chloro-4-fluorophenyl)-5--(2-(((1S,2R)-2-hydroxycyclopentyl)amino)-2-oxoacetyl)-2,3-dihydro-1H-pyrrolizine-7-carboxamide] the pEC50 [1] was greater than 7.30 and the CC50 at 7 days [2] was 5000 to 30000 nM.

Work on `Cc1c(C(=O)Nc2ccc(F)c(F)c2)c(C)n(C)c1C(=O)C(=O)Nc1ccccn1` [Example 294, N-(3,4-difluorophenyl)-1,2,4-trimethyl-5-(2-oxo-2-(pyridin-2-ylamino)acetyl)-1H-pyrrole-3-carboxamide] yielded a pEC50 [1] of 6.00 to 6.30 and a CC50 at 7 days [2] greater than 30000 nM.

In the case of `Cc1cc(NC(=O)c2c(C)c(C(=O)C(=O)N[C@H](C(=O)O)C(C)(C)C)n(C)c2C)ccc1F` [Example 30, (S)-2-(22-(4-((4-fluoro-3-methylphenyl)carbamoyl)-1,3,5-trimethyl-1H-pyrrol-2-yl)-2-oxoacetamido)-3,3-dimethylbutanoic acid], the pEC50 [1] was less than 6.00 and the CC50 at 7 days [2] was greater than 30000 nM.

`Cc1noc([C@H](C)NC(=O)C(=O)c2c(Cl)c(C(=O)Nc3ccc(F)c(F)c3)c3n2CCCC3)n1` [Example 516, (S)-2-chloro-N-(3,4-difluorophenyl)-3-(2-((1-(3-methyl-1,2,4-oxadiazol-5-yl)ethyl)amino)-2-oxoacetyl)-5,6,7,8-tetrahydroindolizine--1 carboxamide] showed a pEC50 [1] of 6.30 to 7.30 and a CC50 at 7 days [2] greater than 30000 nM.

For `Cc1cc(NC(=O)c2c(C)c(C(=O)C(=O)NC3(C)CCN(c4cccnn4)CC3)n(C)c2C)ccc1F` [Example 728, N-(4-fluoro-3-methylphenyl)-1,2,4-trimethyl-5-(2-((4-methyl-1-(pyridazin-3-yl)piperidin-4-yl)amino)-2-oxoacetyl)-1H-pyrrole-3-carboxamide], the pEC50 [1] was greater than 7.30 and the CC50 at 7 days [2] was greater than 30000 nM.

`Cc1cc(NC(=O)c2c(C)c(C(=O)C(=O)NC(C)(C)CO)n(C)c2C)cnc1F` [Example 161, N-(6-fluoro-5-methylpyridin-3-yl)-5-(2-((1-hydroxy-2-methylpropan-2-yl)amino)-2-oxoacetyl)-1,2,4-trimethyl-1H-pyrrole-3-carboxamide] showed a pEC50 [1] greater than 7.30 and a CC50 at 7 days [2] greater than 30000 nM.

In the case of `Cc1cc(NC(=O)c2c(C)c(C(=O)C(=O)NC3CCN(c4cccnc4)CC3)n(C)c2C)ccc1F` [Example 663, N-(4-fluoro-3-methylphenyl)-1,2,4-trimethyl-5-(2-oxo-2-((1-(pyridin-3-yl)piperidin-4-yl)amino)acetyl)-1H-pyrrole-3-carboxamide], the pEC50 [1] was greater than 7.30 and the CC50 at 7 days [2] was greater than 30000 nM.

`Cc1cc(NC(=O)c2c(C)c(C(=O)C(=O)N[C@H]3CC[C@@](O)(C(F)(F)F)CC3)n(C)c2C)ccc1F` [Example 207, N-(4-fluoro-3-methylphenyl)-5-(2-(((1r,4r)-4-hydroxy-4-(trifluoromethyl)cyclohexyl)amino)-2-oxoacetyl)-1,2,4-trimethyl-1H-pyrrole-3-carboxamide] gave a pEC50 [1] greater than 7.30 and a CC50 at 7 days [2] greater than 30000 nM.

`Cc1cc(NC(=O)c2c(C)c(C(=O)C(=O)NC(C)(C)C)n(C)c2C)ccc1F` [Example 2, 5-(2-(tert-butylamino)-2-oxoacetyl)-N-(4-fluoro-3-methylphenyl)-1,2,4-trimethyl-1H-pyrrole-3-carboxamide] gave a pEC50 [1] greater than 7.30 and a CC50 at 7 days [2] greater than 30000 nM.

`Cc1c(C(=O)Nc2cccc(Cl)c2)c(C)n(C)c1C(=O)C(=O)NC1(C(F)(F)F)CCOCC1` [Example 604, N-(3-chlorophenyl)-1,2,4-trimethyl-5-(3-oxo-2-((4-(trifluoromethyl)tetrahydro-2H-pyran-4-yl)amino)acetyl)-1H-pyrrole-3-carboxamide] gave a pEC50 [1] greater than 7.30 and a CC50 at 7 days [2] of 5000 to 30000 nM.

For `Cc1noc([C@@H](C)NC(=O)C(=O)c2c(Cl)c(C(=O)Nc3ccc(F)c(C)c3)c3n2CCC3)n1` [Example 546, (R)-6-chloro-N-(4-fluoro-3-methylphenyl)-5-(2-((1-(3-methyl-1,2,4-oxadiazol-5-yl)ethyl)amino)-2-oxoacetyl)-2,3-dihydro-1H-pyrrolizine-7-carboxamide], the pEC50 [1] was greater than 7.30 and the CC50 at 7 days [2] was greater than 30000 nM.

`Cc1noc([C@@H](NC(=O)C(=O)c2c(Cl)c(C(=O)Nc3ccc(F)c(C)c3)c3n2CCCC3)C(C)C)n1` [Example 493, (S)-2-chloro-N-(4-fluoro-3-methylphenyl)-3-(2-((2-methyl-1-(3-methyl-1,2,4-oxadiazol-5-yl)propyl)amino)-2-oxoacetyl)-5,6,7,8-tetrahydroindolizine-1-carboxamide] showed a pEC50 [1] greater than 7.30 and a CC50 at 7 days [2] of 5000 to 30000 nM.

Compound `Cc1c(C(=O)Nc2ccc(F)c(Cl)c2)c2n(c1C(=O)C(=O)N[C@H]1COC[C@@H]1O)CCCC2` [Example 450, N-(3-chloro-4-fluorophenyl)-3-(2-(((3S,4R)-4-hydroxytetrahydrofuran-3-yl)amino)-2-oxoacetyl)-2-methyl-5,6,7,8-tetrahydroindolizine-1-carboxamide] has a pEC50 [1] of 6.30 to 7.30 and a CC50 at 7 days [2] greater than 30000 nM.

`O=C(N[C@H]1CCC[C@H]1O)C(=O)c1c(Cl)c(C(=O)Nc2ccc(F)c(Cl)c2)c2n1CCCC2` [Example 514, 2-chloro-N-(3-chloro-4-fluorophenyl)-3-(2-(((1S,2R)-2-hydroxycyclopentyl)amino)-2-oxoacettyl)-5,6,7,8-tetrahydroindolizine-1-carboxamide] showed a pEC50 [1] of 6.30 to 7.30 and a CC50 at 7 days [2] of 5000 to 30000 nM.

With `Cc1cc(NC(=O)c2c(C)c(C(=O)C(=O)NC3(C)CCN(c4ccncn4)CC3)n(C)c2C)ccc1F` [Example 717] the pEC50 [1] was greater than 7.30 and the CC50 at 7 days [2] was 5000 to 30000 nM.

In the case of `O=C(NC1(CO)CC(F)(F)C1)C(=O)c1c(Cl)c(C(=O)Nc2ccc(F)c(Cl)c2)c2n1CCCC2` [Example 515, 2-chloro-N-(3-chloro-4-fluorophenyl)-3-(2-((3,3-difluoro-1-(hydroxymethyl)cyclobutyl)amino)-2-oxoacetyl)-5,6,7,8-tetrahydroindolizine-1-carboxamide], the pEC50 [1] was greater than 7.30 and the CC50 at 7 days [2] was 5000 to 30000 nM.
